Measured values published in US11066401B2, “Pyrimidine compound, chloride salt thereof, and manufacturing and application of same” (SHENZHEN HAIBIN PHARMACEUTICAL CO., LTD, priority 2016, dated 2021).
Counter-ions that a name gives are not always drawn. Like-named read-outs stand apart in the source and are kept apart here.

Experiments:
PIM3 = PIM3 (Homo sapiens, UniProt Q86V86); experiment: Assay of PIM kinase activity, PIM3; type: biochemical; settings: 6 concentrations, initial concentration 30 nM; read-out: IC50 PIM 3
Protocol: (§1) Dose-dependent experiments on PIM1, PIM2 and PIM3 were commissioned to Shanghai Runnuo Biotechnology, 6 concentration gradients were set, the initial concentration was 30 nM, 200 nM and 30 nM, then diluted successively, the inhibitive effects of compounds on PIM kinase was tested, the results were shown in Table 9.

[1] = Test for hygroscopicity (Chinese Pharmacopeia 2010, Appendix XIX J); type: physicochemical
Protocol: The experiment was carried out according to Guiding Principles of Drug Hygroscopicity Test, Appendix XIX J, Second Part, Chinese Pharmacopeia (2010), the weight increased by hygroscopy of samples (compound shown in Formula (I) and salts thereof prepared in EXAMPLES 1-17) was calculated respectively, the results were shown in Table 4.

PIM1 = PIM1 (Homo sapiens, UniProt P11309); experiment: Assay of PIM kinase activity, PIM1; type: biochemical; settings: 6 concentrations, initial concentration 30 nM; read-out: IC50 PIM 1
PIM1, sequence (P11309 whole entry): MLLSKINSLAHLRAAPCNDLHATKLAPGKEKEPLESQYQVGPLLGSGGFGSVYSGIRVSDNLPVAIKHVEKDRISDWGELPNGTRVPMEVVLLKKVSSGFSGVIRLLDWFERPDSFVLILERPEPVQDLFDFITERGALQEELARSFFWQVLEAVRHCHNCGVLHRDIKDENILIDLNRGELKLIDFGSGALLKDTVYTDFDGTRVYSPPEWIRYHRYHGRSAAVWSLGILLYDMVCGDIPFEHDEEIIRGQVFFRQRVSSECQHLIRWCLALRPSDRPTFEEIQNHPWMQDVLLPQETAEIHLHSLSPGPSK
Protocol: as §1

[2] = Pharmacokinetic test, absolute bioavailability in rats; type: in vivo; settings: male SD rats, i.g. 40 mg/kg vs i.v. 20 mg/kg
Protocol: 48 male SD rats with a body weight of 200-220 g were randomly divided into 8 groups with 6 mice each group, administered the compound shown in Formula (I), the hydrochloride salt, mesylate and acetate thereof intragastrically (i.g.) and intravenously (i.v.) respectively, and the protocol was shown in Table 7:
Intragastric administration: 2% of HPMC
Intravenous administration: a solution prepared with 20% PEG
The rats were fasted for 12 hours with free access to water prior to experiment; and fed together 2 hours after administration.
Blood sampling time points: 5 min (only administering intravenously), 0.25 h, 0.5 h, 1.0 h, 2.0 h, 4.0 h, 6.0 h, 8.0 h and 24 h after administration;
Sample treatment: 0.3 ml venous blood was obtained from rats' posterior ocular vein plexus at the above-mentioned time points, put into a heparinized tube, centrifuged for 5 minutes at 11000 rpm to separate plasma, then frozen in a refrigerator at −20° C.
The concentration of parent drugs in rat's plasma was detected by utilizing LC/MS/MS.
Wherein, F: absolute bioavailability; AUC: area under the curve; D: Dosage

PIM2 = PIM2 (Homo sapiens, UniProt Q9P1W9); experiment: Assay of PIM kinase activity, PIM2; type: biochemical; settings: 6 concentrations, initial concentration 200 nM; read-out: IC50 PIM 2
PIM2, sequence (Q9P1W9 whole entry): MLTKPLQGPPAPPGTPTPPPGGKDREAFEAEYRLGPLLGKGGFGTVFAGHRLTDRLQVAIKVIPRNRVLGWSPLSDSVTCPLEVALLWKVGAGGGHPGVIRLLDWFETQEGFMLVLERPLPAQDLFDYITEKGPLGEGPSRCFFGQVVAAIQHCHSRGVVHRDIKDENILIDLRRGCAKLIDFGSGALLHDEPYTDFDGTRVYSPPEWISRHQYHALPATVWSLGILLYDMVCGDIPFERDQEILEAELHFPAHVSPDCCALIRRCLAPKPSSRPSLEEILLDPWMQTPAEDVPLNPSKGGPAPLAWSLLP
Protocol: as §1

[3] = Test for stability: related substances under high temperature and illumination (HPLC); type: physicochemical; settings: for Related substances Day 10 under high temperature / Related substances Day 10 under illumination condition / Related substances Day 0: acetonitrile-water (1:1) solution; for Related substances Day 10 under high temperature: 60° C., in % (unit assumed); for Related substances Day 10 under high temperature / Related substances Day 10 under illumination condition: 10 days, area normalization; for Related substances Day 10 under illumination condition: 4500 lx±500 lx; for Related substances Day 0: day 0, area normalization
Protocol: The experiment was carried out according to Guiding Principles of Active Pharmaceutical Ingredient and Pharmaceutical Formulation Stability Test, Appendix XIX C, Second Part, Chinese Pharmacopeia (2010), the increase of related substance of the solution of compounds shown in formula (I) and salts thereof (EXAMPLES 1-17) under high temperature condition (60° C.) and illumination (the light intensity was 4500 lx±500 lx) was detected to evaluate the stability.
Wherein, the method for detecting related substance was shown as following:
HPLC: Waters 2695 UV Detector
Chromatographic Column: Diamonsil C18 (2) 5 μm, 150×4.6 mm
Detection wavelength: 322 nm
Column temperature: 30° C.
Mobile phase B: buffer (900 ml water+10 ml triethylamine+5 ml phosphoric acid, being diluted to 1000 ml with water)
The testing samples were prepared by using acetonitrile-water (1:1) solution with a concentration of 10-100 μg/ml, kept under high temperature (60° C.) and illumination (the light intensity was 4500 lx±500 lx) respectively for 10 days, the mass of related substance was determined on day 0 and day 10 (calculated by using area normalization), the results were shown in Table 6.

[4] = Test of solubility in water (HPLC)
Protocol: Wherein, the chromatographic condition was shown as follows:
Chromatographic Column: C18
Column temperature: 25° C.
Mobile phase A: 0.1% TFA-water
Mobile phase B: 0.1% TFA-CAN

Nc1sc(-c2c(F)cccc2F)nc1C(=O)Nc1cncnc1OCC1CCNCC1 (as salt: hydrochloride) [EXAMPLE 2] showed a melting point of 236.1 to 239.4 °C.

With Nc1sc(-c2c(F)cccc2F)nc1C(=O)Nc1cncnc1OCC1CCNCC1 [EXAMPLE 1, 5-amino-2-(2,6-difluorophenyl)-N-(4-(piperidine-4-methoxy)pyrimidine-5-) thiazole-4-formamide] the IC50 (PIM3) was 23 nM, the “Weight increased by hygroscopy” value [1] was 3.35% and the IC50 (PIM1) was 10 nM. The “Absolute Bioavailability” value [2] was 2.2%, the IC50 (PIM2) was 8.09 nM and the “Related substances Day 10 under high temperature” value [3] was 5.02. For the same compound, the Related substances Day 10 under illumination condition [3] was 3.02% and the Related substances Day 0 [3] was 0.45%.

With Nc1sc(-c2c(F)cccc2F)nc1C(=O)Nc1cncnc1OCC1CCNCC1 [EXAMPLE 2] the solubility in water [4] was “about 1 mg/mL”, the IC50 (PIM3) was 4.36 nM and the “Weight increased by hygroscopy” value [1] was 0.52%. For the same compound, the “Weight increased by hygroscopy” value ([1]; listed as hydrochloride salt) was 0.52%, the IC50 (PIM1) was 2.31 nM and the “Absolute Bioavailability” value [2] was 32.2%. The IC50 (PIM2) was 1.54 nM, the “Related substances Day 10 under high temperature” value [3] was 0.68 and the Related substances Day 10 under illumination condition [3] was 0.56%. The Related substances Day 0 [3] was 0.49% and the “increase of the amount of related substance” value ([3]; after 10 days, heat, light) was no more than 0.19%.

In the case of Br.Nc1sc(-c2c(F)cccc2F)nc1C(=O)Nc1cncnc1OCC1CCNCC1 [EXAMPLE 3], the “Weight increased by hygroscopy” value [1] is reported as 4.32%, the “Related substances Day 10 under high temperature” value [3] is reported as 3.45 and the Related substances Day 10 under illumination condition [3] is reported as 1.67%. The Related substances Day 0 [3] was 0.52%.

For Nc1sc(-c2c(F)cccc2F)nc1C(=O)Nc1cncnc1OCC1CCNCC1.O=C(O)/C=C\C(=O)O [EXAMPLE 4], the “Weight increased by hygroscopy” value [1] was 5.45%, the “Related substances Day 10 under high temperature” value [3] was 4.54 and the Related substances Day 10 under illumination condition [3] was 2.22%. The Related substances Day 0 [3] was 0.46%.

For Nc1sc(-c2c(F)cccc2F)nc1C(=O)Nc1cncnc1OCC1CCNCC1.O=C(O)CCC(=O)O [EXAMPLE 6, Succinate], the “Weight increased by hygroscopy” value [1] was 7.56%, the “Related substances Day 10 under high temperature” value [3] was 8.82 and the Related substances Day 10 under illumination condition [3] was 4.56%. It also gave a Related substances Day 0 [3] of 0.55%.

For Nc1sc(-c2c(F)cccc2F)nc1C(=O)Nc1cncnc1OCC1CCNCC1.O=S(=O)(O)O [EXAMPLE 7], the “Weight increased by hygroscopy” value [1] was 3.56%, the “Related substances Day 10 under high temperature” value [3] was 4.67 and the Related substances Day 10 under illumination condition [3] was 2.45%. It also gave a Related substances Day 0 [3] of 0.52%.

With Nc1sc(-c2c(F)cccc2F)nc1C(=O)Nc1cncnc1OCC1CCNCC1.O=C(O)CC(O)(CC(=O)O)C(=O)O [EXAMPLE 8] the “Weight increased by hygroscopy” value [1] was 5.67%, the “Related substances Day 10 under high temperature” value [3] was 7.34 and the Related substances Day 10 under illumination condition [3] was 5.52%. The Related substances Day 0 [3] was 0.52%.

With Nc1sc(-c2c(F)cccc2F)nc1C(=O)Nc1cncnc1OCC1CCNCC1.O=C(O)c1ccccc1 [EXAMPLE 9] the “Weight increased by hygroscopy” value [1] was 7.53%, the “Related substances Day 10 under high temperature” value [3] was 5.56 and the Related substances Day 10 under illumination condition [3] was 4.44%. The Related substances Day 0 [3] was 0.56%.

With CS(=O)(=O)O.Nc1sc(-c2c(F)cccc2F)nc1C(=O)Nc1cncnc1OCC1CCNCC1 [EXAMPLE 10] the “Weight increased by hygroscopy” value [1] was 8.21%, the “Absolute Bioavailability” value [2] was 7.32% and the “Related substances Day 10 under high temperature” value [3] was 35.6. It also gave a Related substances Day 10 under illumination condition [3] of 23% and a Related substances Day 0 [3] of 0.54%.

In the case of CC(O)C(=O)O.Nc1sc(-c2c(F)cccc2F)nc1C(=O)Nc1cncnc1OCC1CCNCC1 [EXAMPLE 11], the “Weight increased by hygroscopy” value [1] is reported as 3.67%, the “Related substances Day 10 under high temperature” value [3] is reported as 10.78 and the Related substances Day 10 under illumination condition [3] is reported as 5.67%. For the same compound, the Related substances Day 0 [3] was 0.54%.

In the case of CC(=O)O.Nc1sc(-c2c(F)cccc2F)nc1C(=O)Nc1cncnc1OCC1CCNCC1 [EXAMPLE 12], the “Weight increased by hygroscopy” value [1] is reported as 9.21%, the “Absolute Bioavailability” value [2] is reported as 5.34% and the “Related substances Day 10 under high temperature” value [3] is reported as 3.56. For the same compound, the Related substances Day 10 under illumination condition [3] was 2.65% and the Related substances Day 0 [3] was 0.62%.

In the case of Cc1ccc(S(=O)(=O)O)cc1.Nc1sc(-c2c(F)cccc2F)nc1C(=O)Nc1cncnc1OCC1CCNCC1 [EXAMPLE 13], the “Weight increased by hygroscopy” value [1] is reported as 5.78%, the “Related substances Day 10 under high temperature” value [3] is reported as 8.94 and the Related substances Day 10 under illumination condition [3] is reported as 5.67%. For the same compound, the Related substances Day 0 [3] was 0.65%.

For Nc1sc(-c2c(F)cccc2F)nc1C(=O)Nc1cncnc1OCC1CCNCC1.O=C(O)/C=C/C(=O)O [EXAMPLE 15], the “Weight increased by hygroscopy” value [1] was 4.77%, the “Related substances Day 10 under high temperature” value [3] was 9.12 and the Related substances Day 10 under illumination condition [3] was 6.54%. The Related substances Day 0 [3] was 0.56%.

With Ascorbate [EXAMPLE 17] the “Weight increased by hygroscopy” value [1] was 5.67%, the “Related substances Day 10 under high temperature” value [3] was 18.98 and the Related substances Day 10 under illumination condition [3] was 6.66%. The Related substances Day 0 [3] was 0.56%.

In the case of Palmitate [EXAMPLE 14], the “Weight increased by hygroscopy” value [1] is reported as 6.43%, the “Related substances Day 10 under high temperature” value [3] is reported as 6.89 and the Related substances Day 10 under illumination condition [3] is reported as 3.67%. For the same compound, the Related substances Day 0 [3] was 0.66%.

For Tartrate [EXAMPLE 16], the “Weight increased by hygroscopy” value [1] was 7.88%, the “Related substances Day 10 under high temperature” value [3] was 6.89 and the Related substances Day 10 under illumination condition [3] was 3.33%. It also gave a Related substances Day 0 [3] of 0.63%.
